We go through four compounds from the NIST ThermoML archive (doi:10.1021/je800789b).

± gives the expanded uncertainty stated by the source.

The conditions of this data set: Crystal.
`O=C(O)C1CCCCC1` [cyclohexanecarboxylic acid]: the Normal melting temperature was 29.8 ± 1.2 °C.

`O=C(O)CC1CCCCC1` [cyclohexylethanoic acid]: the Normal melting temperature came out at 29.8 ± 1.2 °C.

In the case of `CCCCCCCCCCO` [decan-1-ol], the Normal melting temperature was found to be 6.2 ± 0.4 °C.

With `CCCCCCCCCCCCO` [dodecan-1-ol], the Normal melting temperature was 24.1 ± 0.6 °C.
